The values below come from patent US20140024683A1, “CHLORIDE CHANNEL AND CHLORIDE TRANSPORTER MODULATORS FOR THERAPY IN SMOOTH MUSCLE DISEASES” (priority 2011, published 2014).

Each structure is given as a SMILES string. Several values for one entry are separate records, joined by “and”; a condition that tells them apart may be missing. Equal entries are not always repeated. Where two headings read alike, the source gives them in different places.

Experiment [1] has as its system human airway smooth muscle cells. Put plainly: Whole cell current clamp recording of membrane potential. The class given is cell-based. How it is done:
Induced electrophysiological changes in membrane potential and current were measured using traditional whole cell patch clamp methods. Immortalized human airway smooth muscle cells were grown to confluence on collagen-treated T25 flasks. Collagenase type IV in SmBM2 medium (Lonza, Walkersville, Md.) was used to release cells adherent to the collagen matrix in the flask. Medium with cells in suspension was then harvested in a 10-ml conical tube and centrifuged at 300×g. Supernatant was removed, and the pellet was resuspended in SmBM2 medium and transferred into collagen-treated glass bottom 1-cm Petri dishes at about 10% confluence. Each dish was then incubated at 37° C. and 5% CO2 for 1-4 hours for reattachment of cells to glass-bottom Petri dishes.
Glass-bottom dishes served as a disposable recording chamber. ALA VM-8, an 8-chamber pressure-driven drug application system, was used in a still bath of extracellular salt solution. Whole-cell intracellular voltage recordings under current clamp conditions were performed with a 2-kHz Bessel filter, recording at 10 kHz using an Axopatch 200b amplifier (Axon Instruments, Foster City, Calif., USA). Electrodes were pulled using a P-97 micropipette puller from 1.5-mm OD borosilicate capillary glass (Sutter Instruments, Novato, Calif., USA). Glass electrode resistances ranged from 5 to 10 MO with intracellular solution. Whole-cell intracellular current recordings under voltage-clamp conditions were performed with a 2-kHz Bessel filter, recording at 10 kHz using an Axopatch 200b amplifier. For current measurements (FIG. 11) intracellular solutions consisted of (in mM) 140 TEA-Cl, 5 MgATP, 5 EGTA, 1 MgCl2, 10 HEPES, and 5 CaCl2 (pH 7.2). Extracellular solution consisted of (in mM) 134 NaCl, 1.4 KCl, 10 HEPES, 1 MgCl2, 1.8 CaCl2, and 10 glucose (pH 7.4). This induced the classic spontaneously transient inward currents (STICs) and spontaneously transient outward currents (STOCs) well described in this cell type. STOCs are believed to represent activation of calcium activated potassium (KCa) channels while STICs are believed to represent activation of CaCCs. TEA-Cl was included in the buffer to enhance STICs which were then recorded during the addition of 100 μM niflumic acid. When recording TEA- and niflumic acid-induced responses on membrane potential (ΔmV), the intracellular solutions contained (in mM) 140 KCl, 5 MgATP, 5 EGTA, 1 MgCl2, 10 HEPES, and 5 CaCl2 (pH 7.2), and the extracellular solutions consisted of (in mM) 134 NaCl, 5 MgATP, 5 EGTA, 1 MgCl2, 10 HEPES, and 5 CaCl2 (pH 7.2). All recordings were analyzed on Clampfit 8.0 software (Molecular Devices).

The test system is the same in experiment [2]. It counts as cell-based. As to the method: This buffer was exchanged at 100 μl/well just before starting the measurement of fluorescence. […] In separate experiments the effect of extracellular chloride concentrations on SOCE was measured by the predepletion of extracellular calcium in low or high chloride buffer (55 mM versus 110 mM NaCl, osmotically balanced with Na gluconate) in the presence of thapsigargin to deplete intracellular calcium stores. Calcium induced fluorescence changes were measured with the reintroduction of 2 mM extracellular CaCl2.

Experiment [3] has the same test system. Briefly: FLIPR membrane potentiometric dye assay (Example 21). It counts as cell-based. How it is done:
Immortalized airway smooth muscle cell lines modified to stably express human telomerase reverse transcriptase were a kind gift from Dr. William Gerthoffer (University of Southern Alabama, Mobile, Ala.) prepared as described previously (Gosens et al., 2006) and grown in Dulbecco's Modified Eagle's Medium/F12 media (GIBCO, Grand Island, N.Y.), with 10% FBS and antibiotics.
Immortalized human airway smooth muscle cells were cultured on black-walled 96 well plates to 100% confluence, and were washed four times with warmed (37° C.) assay buffer of the following composition (in mM): NaCl 140, KCl 4.7, CaCl2 2.5, MgCl2 1.2, HEPES 11, D-glucose 10. A stock solution (100% dye) of FLIPR blue dye was prepared by reconstitution of 1 vial (125 mg) with 100 ml assay buffer. A 50% working stock was prepared by further diluting the reconstituted blue dye 1:1 with assay buffer and was used to load cells (90 μl/well) over 45 min at 37° C. in a humidified cell culture incubator (95% air/5% CO2). All reagents were dissolved in assay buffer. Fluorescence was measured with a Flex Station 3 (Molecular Devices) using an excitation wavelength of 530 nm, emission wavelength of 565 nm and a cutoff filter of 550 nm. Baseline fluorescence was measured every 2 seconds for 1 minute then for 2 minutes after injection of vehicle or compound of interest as indicated (using the Flexstation's 3 integrated injection capabilities).
Human airway smooth muscle cells were incubated with FLIPR membrane potentiometric dye to assess if the chloride channel blockers changed membrane potential at the cellular level. FLIPR fluorescence will increase with depolarization, and decrease with hyperpolarization. […] Therefore, chloride channel blockade, but not NKCC blockade, hyperpolarized human airway smooth muscle cells.

In experiment [4] the test system is guinea pig tracheal rings. Briefly: Relaxation of TEA contraction in guinea pig tracheal rings (Example 16, library screen). The settings on record: 10 mM TEA. How it is done:
(§1) Animal protocols were approved by the Columbia University Animal Care and Use Committee. Male Hartley guinea pigs weighing approximately 400 g were anesthetized with intraperitoneal injection of sodium pentobarbital (100 mg/kg). Trachea were removed and transferred to ice cold Krebs-Henseleit (KH) buffer of the following composition (in mM): NaCl 118, KCl 5.6, CaCl2 0.5, MgSO4 0.24, NaH2PO4 1.3, NaHCO3 25, glucose 5.6, pH 7.4. Epithelial-denuded tracheal rings were prepared using a dissecting microscope. Epithelium was removed by gently passing cotton fibers through the lumen of the tracheal rings. The rings were suspended in 4 mL-water jacketed organ baths (37° C.: Radnoti Glass Technology, Monrovia, Calif.) and connected to a Grass FT03 force transducer (Grass Telefactor, West Warwick, R.I.) using silk sutures. The transducers were coupled to the computer with BioPac hardware and data was collected using Acqknowledge 7.3.3 software (BioPac Systems, Goleta, Calif.). KH buffer was bubbled with a gas mixture of 95% oxygen and 5% carbon dioxide and buffer was exchanged every 15 minutes for 1 hour during equilibration of tracheal rings at 1 g resting tension. […].

Experiment [5] concerns guinea pig tracheal rings. Put plainly: Potentiation of isoproterenol relaxation of acetylcholine contraction, guinea pig tracheal rings. To be noted: 50 μM compound 13. How it is done:
as §1
Therefore, we tested whether the chloride channel blockers or modulation of chloride flux could be used in combination with β-agonists to potentiate their effects. […]. Therefore, a combination of treatment with compound 13 and bumetanide potentiated the relaxation effect of isoproterenol.

In experiment [6] the test system is guinea pig tracheal rings. Briefly: Relaxation of potassium gluconate contraction in guinea pig tracheal rings. To be noted: 100 μM; 80 mM potassium gluconate. As to the method: as §1
Many chloride channel blockers are known to also stimulate potassium channels (Greenwood et al., 2007). Thus, we performed additional studies in the presence of a large extracellular concentration of potassium to ensure that our findings of compound 1 or 13 inhibiting a TEA-induced depolarizing contraction were not due to these compounds opening a potassium channel.

For experiment [7], the system named is human airway smooth muscle. Put plainly: Relaxation of acetylcholine contraction in human airway smooth muscle strips. The settings on record: 100 μM alone; EC50 acetylcholine. As to the method:
Studies using de-identified human tissue were reviewed by the Columbia University Institutional Review Board and deemed not human subjects research. Tissues were obtained from healthy, normal organ donor discarded surgical waste subsequent to lung transplant surgery. Tissues were collected after transplant and placed in DMEM media (GIBCO) and bubbled overnight in 5% carbon dioxide and 95% oxygen at 4° C. The following morning, the smooth muscle tissue was carefully dissected under a dissecting microscope and the epithelium removed. The strips were anchored in the organ bath as described above using KH buffer of the same composition. The strips were allowed to equilibrate for 1 hour with buffer exchanges every 15 minutes and were treated with 10^−6 M tetrodotoxin, 10^−5 M pyrilamine, and 10^−5
M MK571. Strips were contracted with an EC50 dose of acetylcholine (Ach)
This experiment was then repeated with human airway smooth muscle to investigate clinical relevance as a model of bronchospasm in humans.

In experiment [8] the test system is guinea pig tracheal rings. Briefly: Relaxation of the maintenance phase of a pre-established acetylcholine contraction, guinea pig tracheal rings. To be noted: 100 μM alone; pre-contracted with EC50 acetylcholine. How it is done:
as §1
Chloride channel blockers were then tested against the plateau phase of an established acetylcholine contraction. […]

In experiment [9] the test system is Ca^2+-activated chloride channel. Briefly: Patch-clamp analysis of spontaneous transient inward currents (STICs). In general terms: Patch clamp records ionic current or voltage across a cell membrane.
The subject of experiment [10] is guinea pig tracheal rings. Briefly: Ex vivo airway smooth muscle force, prevention or relaxation of a contraction (Example 5). To be noted: solo therapy; vs vehicle. How it is done:
The chloride channel blocker NPPB and the chloride transporter blocker bumetanide were evaluated for their ability to prevent an initial contraction (n=5) (FIG. 23A) or to relax an existing contraction (n=6) (FIG. 23B).
As a proof of concept for chloride channel blockade in general, another chloride channel blocker, 5-nitro-2-(3-phenylpropylamino)-benzoic acid (NPPB) was used in an ex vivo guinea pig airway smooth muscle model.

The subject of another experiment is RhoA. To be noted: 10 mM TEA-acetate, 2 minutes. As to the method:
FIG. 8 is a bar graph showing RhoA activation in human airway smooth muscle cells.
Measurement of activated rhoA in cultured human airway smooth muscle cells were conducted as follows. […] Reaction was stopped by solubilizing cells in buffer. Following clearance of non-solubilized cell material, the solubilized cells were reacted with Rhotekin bound to beads, which isolated activated RhoA from total RhoA. Fractions were then analyzed on a commercially available ELISA plate that quantitates activated versus total RhoA (Cytoskeleton, Inc.)

The next experiment has as its system rat lung slices. Briefly: Airway lumen area in peripheral small airways of rat lung slices. The settings on record: contractile agonists. How it is done:
The measurement of airway contraction of a luminal area of small lung airways using the ex vivo rat lung slice method was performed as described (Perez-Zoghbi et al., 2007). The trachea was cannulated with an intravenous catheter, and after the chest cavity was opened, the collapsed lungs were reinflated with 1.3±0.1 ml of 2% agarose (low-gelling temperature) in Sigma-Hanks' Balanced Salt solution (sHBSS), followed by the injection of 0.2±0.1 of air to flush the agarose-sHBSS out of the airways and into the distal alveolar space. Subsequently, a warm (37° C.) solution of gelatin (type A, porcine skin, 300 bloom, 6% in sHBSS) was perfused through the intrapulmonary blood vessels via the pulmonary artery by injecting about 0.3 ml into the right ventricle. The warm agar and gelatin were gelled with cold sHBSS. A single lung lobe was removed and cut into serial sections of about 130 μm thick with a vibratome at about 4° C., starting at the lung periphery. Slices were maintained in DMEM (Invitrogen) at 37° C. and 10% CO2 for up to 3 days. At 37° C., the gelatin in the blood vessel lumen dissolved, leaving the blood vessel lumen empty. Lung slices were mounted in a custom-made perfusion chamber and held in place with a small sheet of nylon mesh. A second cover glass edged with silicone grease was placed over the lung slice. Perfusion of the lung slice was performed using a gravity-fed perfusion system. The volume of the chamber was about 100 μl with a perfusion rate of about 800 μl/min. […] Digital images were recorded in time lapse (30 frames/min). The area of the bronchiole and arteriole lumen was calculated, from each image, by pixel summing using custom-written software. Experiments were performed at room temperature.

[11] abbreviates: 10 μM compound 13 and bradykinin, n=5.
Where [12] appears, read: 10 μM compound 13 plus 30 μM bradykinin, n=5.
[13] abbreviates: compound 13 under basal conditions, n=9.

Consider `O=C([O-])[C@H](O)[C@@H](O)[C@H](O)[C@H](O)CO.[K+]` [K gluconate, potassium gluconate], for which the “membrane potential (current clamp, whole cell)” value in experiment [1] (60-75 mM potassium (K)-gluconate) was “depolarized the cell”. The “intracellular calcium (fluo4-AM fluorescence)” value in [2] was “increased calcium”. Besides, the “membrane potential, continuous fluorescence recording (representative tracing)” value in experiment [3] is on record as “depolarizes”.

On to `O=C(O)c1cc(Cl)ccc1NCc1cccc2ccccc12` [compound 13, 5-chloro-2-(1-naphthylmethylamino)benzoic acid], for which, in experiment [4] (100 μM), the “percent of the TEA-induced contraction remaining at 15 minutes” value turned out to be 61.0±10.1% and the “relaxed fraction of a TEA-induced contraction at 15 minutes after drug addition” value worked out at 39.0%. Moreover, in experiment [4], the “relaxation of TEA-induced contraction (screen of 20-compound chloride channel blocker library)” value was “most potently relax”. For the same molecule, the “shift of the EC50 of isoproterenol” value in experiment [5] came to 2.2 fold. The “percent of potassium gluconate-induced contraction at 30 minutes” value in [6] is 68.17%±4.9 and 68.2%±4.9. Also, the “change in relative fluorescent units (membrane potential, FLIPR)” value in experiment [3] (100 μM, n=12) is −264.2+/−40 RFU. Also, in experiment [7], the “relaxation of acetylcholine contraction” value is reported as 52.5%±8.1. Besides, in [8], the “relaxation of established acetylcholine contraction” value is 60.1%±5.7. In addition, in experiment [9] (10 μM compound 13 alone, n=9), the “amplitude of STICs” value was 0.44±0.09 fold change with control normalized to 1 and the “frequency of STICs” value is on record as 0.4±0.1 fold change with control normalized to 1. Also, in [9] (setting [11]), the “amplitude of STICs compared to control” value was 46% and the “frequency of STICs compared to control” value stood at 40%. Moreover, in experiment [9] (setting [12]), the “amplitude of STICs” value is 0.46±0.13 fold change with control normalized to 1 and the “frequency of STICs” value was 0.4±0.14 fold change with control normalized to 1. For the same molecule, in experiment [9] (setting [13]), the “amplitude of STICs” value was 44 % of control and the “frequency of STICs” value is 40 % of control.

For the molecule `O=C(O)c1cc([N+](=O)[O-])ccc1NCCCc1ccccc1` [NPPB, 5-nitro-2-(3-phenylpropylamino)-benzoic acid], the “percent of potassium gluconate-induced contraction at 30 minutes” value in [6] is 56.71%±10.6 and 56.7%±10.6. Also, the “relaxation of an existing contraction” value in experiment [10] was “effective in relaxing an existing contraction”.

For the molecule `CC[N+](CC)(CC)CC.[Cl-]` [TEA, tetraethylammonium chloride], in the experiment with RhoA, the RhoA activation entry was “activates rhoA”. Further, in experiment [1] (10 mM TEA-Cl), the “membrane potential (current clamp, whole cell)” value is reported as “depolarized the cell”. Further, the “intracellular calcium (fluo4-AM fluorescence)” value in [2] (10 mM TEA) is “does not increase intracellular Ca^2+”. For the same molecule, the “percent decrease in lumen area compared to rest” value with rat lung slices was “significant decrease in lumen area”.
